≈ marks a conversion by molar mass, not a printed value. Where two headings read alike, the source gives them in different places.
Tested on: L1210 Leukämiezellen
Test: Colony formation of L1210 leukemia cells in soft agar
Type: cell-based, Maus
Conditions: Mus musculus
[1] = L1210, read-out: 1h-Inkubation IC50

Row | SMILES | IC50 (L1210, 168 h, read-out: Dauerinkubation IC50) | IC50 [1] | IC50 (L1210, 168 h, continuous exposure: substance mixed into upper agar layer for the whole 7-day incubation at 37°C, colonies > 60 µm counted, percent of untreated control, read-out: Dauerinkubation IC50) | IC50 (L1210, 1 h incubation with substance at 37°C, cells washed twice, then plated in 0,3 % agar for 7 days, colonies > 60 µm counted, read-out: 1h-Inkubation IC50)
1 | COc1cccc2c1C(=O)c1c(O)c3c(c(O)c1C2=O)C[C@@](O)(C(=O)CO)C[C@@H]3O[C@H]1C[C@H](N)[C@H](O)[C@H](C)O1 [Adriamycin, reference compound] | 0.02 µg/mL (≈ 0.0368 µM) | 0.04 µg/mL (≈ 0.0736 µM) | – | –
2 | CC[C@@]1(O)C[C@H](O[C@H]2C[C@H](NC(=O)C(F)(F)F)[C@@H](OCc3ccccc3)[C@H](C)O2)c2c(O)c3c(c(O)c2[C@H]1O)C(=O)c1cccc(O)c1C3=O [Beispiel 49, 7-O-(4-O-Benzyl-3-N-trifluoracetyl-α-L-acosaminyl)-β-rhodomycinon] | – | > 1 µg/mL | – | –
3 | CC[C@@]1(O)C[C@H](O[C@H]2C[C@H](NC(=O)C(F)(F)F)[C@H](OC(=O)c3ccc([N+](=O)[O-])cc3)[C@H](C)O2)c2c(O)c3c(c(O)c2[C@H]1O)C(=O)c1cccc(O)c1C3=O [Beispiel 19, 7-O-(4-O-Paranitrobenzoyl-3-N-trifluoracetyl-α-L-daunosaminyl)-β-rhodomycinon] | – | – | 0.11 µg/mL (≈ 0.145 µM) | > 1 µg/mL
